Experimental data: PubChem BioAssay AID651688 (The Scripps Research Institute Molecular Screening Center, 2012)
Activity calls are given as the source filed them. The rule behind the calls is not given here.

Biological target: 5-hydroxytryptamine receptor 5A (Homo sapiens) (UniProt P47898)
Experiment: HTR5A activation, luminescence read-out – cell-based, dose response, counter-screen for OPRM1-OPRD1 heterodimer activator project, late-stage follow-up (AID 651688)
Details: HTR5A counterscreen cells, luminescence (beta-arrestin/complementation)

Sequence of 5-hydroxytryptamine receptor 5A (Homo sapiens) (P47898 whole entry, looked up): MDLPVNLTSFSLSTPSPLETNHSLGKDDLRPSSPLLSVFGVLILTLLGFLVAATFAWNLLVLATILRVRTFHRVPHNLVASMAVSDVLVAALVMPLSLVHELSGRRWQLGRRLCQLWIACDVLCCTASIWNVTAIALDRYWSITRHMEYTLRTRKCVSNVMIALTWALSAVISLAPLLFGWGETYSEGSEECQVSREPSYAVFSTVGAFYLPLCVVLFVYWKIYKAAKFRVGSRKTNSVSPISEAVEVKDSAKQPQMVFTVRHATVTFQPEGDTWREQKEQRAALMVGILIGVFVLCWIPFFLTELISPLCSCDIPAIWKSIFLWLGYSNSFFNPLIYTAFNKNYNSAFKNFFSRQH

Row | SMILES | EC50
1 | CCOC(=O)C1(CCc2ccccc2)CCN(Cc2ccc(OC(C)C)c(C#N)c2)CC1 | > 40 µM (inactive)
2 | CCOC(=O)C1(Cc2ccccc2)CCN(Cc2cccn2-c2nccs2)CC1 | > 40 µM (inactive)
3 | CCOC(=O)C1(CCc2ccccc2)CCN(Cc2ccccc2C)CC1 | > 40 µM (inactive)
4 | OCC1(CCc2ccccc2)CCN(Cc2cc(F)ccc2-n2cccn2)CC1 | > 40 µM (inactive)
5 | CCOC(=O)C1(CC2CCCCO2)CCN(Cc2c(C)cc(C)cc2-n2cccn2)CC1 (stereo unspecified) | > 40 µM (inactive)
6 | CCOC(=O)C1(CCc2ccccc2)CCN(Cc2cc(C)cc(C)c2)CC1 | > 40 µM (inactive)
7 | CCOC(=O)C1(Cc2ccccc2)CCN(Cc2cccn2-c2cccnc2)CC1 | > 40 µM (inactive)
8 | CCOC(=O)C1(CCCc2ccccc2)CCN(Cc2cnn(C)c2)CC1 | > 40 µM (inactive)
9 | CCOC(=O)C1(CCc2ccccc2)CCN(Cc2ccc(NC(C)=O)cc2)CC1 | > 40 µM (inactive)
10 | CCOC(=O)C1(CCOc2ccccc2)CCN(Cc2ccc(O)c(OC)c2)CC1 | > 40 µM (inactive)
11 | CCOC(=O)C1(CCOc2ccccc2)CCN(Cc2cccn2-c2cccnc2)CC1 | > 40 µM (inactive)
